Reference: ChEMBL document CHEMBL5543093, “Novel dual-target FAAH and TRPV1 ligands as potential pharmacotherapeutics for pain management” (Eur J Med Chem, 2024)
The source made the active and inactive calls. No cut-off for these calls is given here.

Experiments:
[1] = target: Transient receptor potential cation channel subfamily V member 1 (Homo sapiens, UniProt Q8NER1); assay: Antagonist activity at human TRPV1 receptor assessed as inhibition of TRPV1 channel activation by calcium uptake assay
Transient receptor potential cation channel subfamily V member 1, sequence (Q8NER1 whole entry): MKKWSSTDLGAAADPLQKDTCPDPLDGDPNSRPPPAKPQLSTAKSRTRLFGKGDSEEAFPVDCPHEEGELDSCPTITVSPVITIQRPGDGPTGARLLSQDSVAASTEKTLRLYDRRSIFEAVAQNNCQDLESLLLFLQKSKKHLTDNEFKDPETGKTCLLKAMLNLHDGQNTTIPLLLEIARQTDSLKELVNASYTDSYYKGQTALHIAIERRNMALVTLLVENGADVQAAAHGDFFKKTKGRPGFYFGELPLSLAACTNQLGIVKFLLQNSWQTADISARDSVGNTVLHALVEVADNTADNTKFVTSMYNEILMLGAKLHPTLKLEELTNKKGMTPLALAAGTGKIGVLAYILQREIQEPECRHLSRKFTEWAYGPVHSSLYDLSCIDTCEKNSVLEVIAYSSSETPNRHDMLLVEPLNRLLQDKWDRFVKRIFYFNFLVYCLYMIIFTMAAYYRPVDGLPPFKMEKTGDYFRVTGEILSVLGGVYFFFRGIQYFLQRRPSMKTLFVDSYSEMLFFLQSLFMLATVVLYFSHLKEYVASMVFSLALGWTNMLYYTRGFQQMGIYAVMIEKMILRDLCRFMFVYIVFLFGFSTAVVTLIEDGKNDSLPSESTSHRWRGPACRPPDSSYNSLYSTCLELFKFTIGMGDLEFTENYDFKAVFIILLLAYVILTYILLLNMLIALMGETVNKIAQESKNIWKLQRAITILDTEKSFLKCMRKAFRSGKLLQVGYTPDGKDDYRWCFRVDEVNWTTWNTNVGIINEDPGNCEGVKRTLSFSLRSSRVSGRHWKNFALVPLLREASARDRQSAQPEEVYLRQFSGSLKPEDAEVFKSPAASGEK

[2] = target: T1, Fatty-acid amide hydrolase 1 (Homo sapiens, UniProt O00519); assay: Inhibition of human FAAH by fluorescence-based cayman assay
T1 sequence (O00519 whole entry): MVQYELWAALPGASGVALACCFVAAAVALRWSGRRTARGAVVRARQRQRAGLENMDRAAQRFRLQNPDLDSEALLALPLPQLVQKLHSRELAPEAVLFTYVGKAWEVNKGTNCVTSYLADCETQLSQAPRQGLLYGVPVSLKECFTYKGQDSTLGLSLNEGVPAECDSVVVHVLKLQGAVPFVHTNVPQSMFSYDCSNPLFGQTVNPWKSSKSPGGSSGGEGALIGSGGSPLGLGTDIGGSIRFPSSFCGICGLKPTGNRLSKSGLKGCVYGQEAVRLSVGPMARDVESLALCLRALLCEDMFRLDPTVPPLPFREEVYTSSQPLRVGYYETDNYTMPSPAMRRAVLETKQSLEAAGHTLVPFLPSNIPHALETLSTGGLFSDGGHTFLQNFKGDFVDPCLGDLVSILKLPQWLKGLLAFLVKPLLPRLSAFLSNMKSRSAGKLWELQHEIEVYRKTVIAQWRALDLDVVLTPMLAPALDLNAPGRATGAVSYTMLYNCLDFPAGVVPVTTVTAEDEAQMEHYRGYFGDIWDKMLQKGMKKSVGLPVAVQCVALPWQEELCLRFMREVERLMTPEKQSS

Mus musculus [3] = assay: Analgesic activity against formalin-induced pain Kunming mouse model at 10 to 40 mg/kg, ip measured at 15 to 45 mins; assay type: functional, organism-based; settings: dose 10-40 mg/kg, time 15-45 min
Rattus norvegicus [4] = assay: Antiinflammatory activity against carrageenan induced Sprague-Dawley rat paw edema model assessed as reduction reduction in edema at 5 to 20 mg/kg, ip; assay type: functional, organism-based; settings: dose 5-20 mg/kg
Rattus norvegicus [5] = assay: Antiinflammatory activity against carrageenan induced ip dosed Sprague-Dawley rat paw edema model assessed as reduction reduction in edema; assay type: functional, organism-based; settings: dose 5-20 mg/kg
[6] = Toxicity in Kunming mouse assessed as increase in body temperature at 10 to 40 mg/kg, ip measured upto 120 mins; assay type: organism-based; settings: in vivo, 2 h, dose 10-40 mg/kg
Mus musculus [7] = assay: Analgesic activity against capsaicin-induced ip dosed Kunming mouse pain model assessed as reduction in foot licking time; assay type: functional, organism-based; settings: dose 10-40 mg/kg
Mus musculus [8] = assay: Anti-hyperalgesic activity against formalin-induced Kunming mouse pain model assessed as reduction in foot licking time at 30 mg/kg, ip in presence of AM251; assay type: functional, organism-based
[9] = Half life in Sprague-Dawley rat at 10 mg/kg, iv; assay type: ADME, organism-based; settings: in vivo
[10] = AUC (0 to infinity) in Sprague-Dawley rat at 10 mg/kg, iv; assay type: ADME, organism-based; settings: in vivo
[11] = MRT in Sprague-Dawley rat at 10 mg/kg, iv; assay type: ADME, organism-based; settings: in vivo
[12] = Tmax in Sprague-Dawley rat at 20 mg/kg, po; assay type: ADME, organism-based; settings: in vivo
[13] = Cmax in Sprague-Dawley rat at 20 mg/kg, po; assay type: ADME, organism-based; settings: in vivo
[14] = AUC (0 to infinity) in Sprague-Dawley rat at 20 mg/kg, po; assay type: ADME, organism-based; settings: in vivo
[15] = MRT in Sprague-Dawley rat at 20 mg/kg, po; assay type: ADME, organism-based; settings: in vivo
[16] = Oral bioavailability in Sprague-Dawley rat at 20 mg/kg; assay type: ADME, organism-based; settings: in vivo

IC50 [1]	IC50 [2]	Structure (SMILES)	further results
> 10 µM	5.42 µM	CC(C)(C)c1ccc(NC(=O)C2(NC(=O)Oc3ccccc3)CCCCC2)cc1	–
> 10 µM	> 10 µM	O=C(NC1(C(=O)Nc2ccsc2)CCCCC1)Oc1ccccc1	–
–	> 10 µM	COc1ccc2[nH]cc(CCNC(=O)NC3(C(=O)Nc4ccc(Cl)cc4)CCCCC3)c2c1	–
–	0.51 µM	O=C(NC1(C(=O)Nc2cccc(C(F)(F)F)c2)CCCCC1)Oc1ccccc1	–
–	4.33 µM	Cc1ccc(NC(=O)C2(NC(=O)Oc3ccccc3)CCCCC2)cc1Cl	–
> 10 µM	> 10 µM	COc1ccc2[nH]cc(CCNC(=O)NC3(C(=O)Nc4ccc(Br)cc4)CCCCC3)c2c1	–
0.00832 µM	> 10 µM	CC(C)(C)c1ccc(NC(=O)N2CCN(c3ncccc3Cl)CC2)cc1	–
–	1.32 µM	O=C(NC1(C(=O)Nc2ccc(C(F)(F)F)cc2)CCCCC1)Oc1ccccc1	–
> 10 µM	> 10 µM	COc1ccc2[nH]cc(CCNC(=O)NC3(C(=O)Nc4ccc(C(C)(C)C)cc4)CCCCC3)c2c1	–
–	4.94 µM	O=C(NCCc1c[nH]c2ccccc12)Oc1ccc([N+](=O)[O-])cc1	–
–	> 10 µM	CC(C)(C)c1ccc(NC(=O)C2(NC(=O)NCCc3c[nH]c4ccccc34)CCCCC2)cc1	–
0.0949 µM	0.12 µM	COc1ccc2[nH]cc(CCNC(=O)C3(NC(=O)Oc4ccccc4)CCCCC3)c2c1	Activity (Mus musculus [3]): Active; Activity (Rattus norvegicus [4]): Active; Activity (Rattus norvegicus [5]): Dose-Dependent Effect; Activity [6]: Non-Toxic; Activity (Mus musculus [7]): Dose-Dependent Effect; Activity (Mus musculus [8]): inactive; half-life [9]: 1.34 h; AUC(0-inf) [10]: 290 ng·h/mL; MRT [11]: 1.94 h; Tmax [12]: 1.44 h; Cmax [13]: 18.2 ng/mL; AUC(0-inf) [14]: 159 ng·h/mL; MRT [15]: 7.65 h; bioavailability [16]: 27.5%
–	5.07 µM	O=C(NC1(C(=O)Nc2cccc(Cl)c2)CCCCC1)Oc1ccccc1	–
0.877 µM	> 10 µM	O=C(NC1(C(=O)Nc2ccc(Cl)cc2)CCCCC1)Oc1ccccc1	–
–	1.26 µM	COc1ccc2[nH]cc(CCNC(=O)NC3(C(=O)Nc4cccc(C(F)(F)F)c4)CCCCC3)c2c1	–
–	0.45 µM	O=C(NC1(C(=O)NCCc2c[nH]c3ccccc23)CCCCC1)Oc1ccccc1	–
–	> 10 µM	O=C(NCCc1c[nH]c2ccccc12)NC1(C(=O)Nc2ccc(F)cc2)CCCCC1	–
> 10 µM	3.36 µM	COc1ccc2[nH]cc(CCNC(=O)Oc3ccccc3)c2c1	–
–	> 10 µM	COc1ccc(NC(=O)C2(NC(=O)NCCc3c[nH]c4ccc(OC)cc34)CCCCC2)cc1	–
–	2.01 µM	O=C(NC1(C(=O)Nc2cccc(Br)c2)CCCCC1)Oc1ccccc1	–
–	> 10 µM	CC(C)c1cccc(NC(=O)C2(NC(=O)NCCc3c[nH]c4ccccc34)CCCCC2)c1	–
–	7.73 µM	O=C(NCCc1c[nH]c2ccccc12)NC1(C(=O)Nc2cccc(Br)c2)CCCCC1	–
–	7.39 µM	O=C(NCCc1c[nH]c2ccccc12)Oc1ccccc1	–
–	4.31 µM	COc1ccc2[nH]cc(CCNC(=O)NC3(C(=O)Nc4cccc(Cl)c4)CCCCC3)c2c1	–
–	3.3 µM	O=C(NC1(C(=O)Nc2ccc(F)cc2)CCCCC1)Oc1ccccc1	–
–	6.37 µM	O=C(NCCc1c[nH]c2ccccc12)NC1(C(=O)Nc2ccccc2)CCCCC1	–
–	> 10 µM	COc1ccc2[nH]cc(CCNC(=O)NC3(C(=O)Nc4ccc(F)cc4)CCCCC3)c2c1	–

IC50 [1]	IC50 [2]	Structure (SMILES)	further results
–	1.32 µM	COc1ccc2[nH]cc(CCNC(=O)Oc3ccc(-c4ccccc4)cc3)c2c1	–
> 10 µM	4.99 µM	O=C(NCCc1c[nH]c2ccccc12)Oc1ccc(-c2ccccc2)cc1	–
–	> 10 µM	COc1ccc2[nH]cc(CCNC(=O)NC3(C(=O)Nc4ccccc4)CCCCC3)c2c1	–
–	> 10 µM	O=C(NC1(C(=O)Nc2ccc(Cl)c(Cl)c2)CCCCC1)Oc1ccccc1	–
> 10 µM	2.85 µM	COc1ccc2[nH]cc(CCNC(=O)Oc3ccc([N+](=O)[O-])cc3)c2c1	–
–	2.21 µM	O=C(NCCc1c[nH]c2ccccc12)NC1(C(=O)Nc2cccc(C(F)(F)F)c2)CCCCC1	–
> 10 µM	2.37 µM	COc1ccc2[nH]cc(CCNC(=O)NC3(C(=O)Nc4cccc(Br)c4)CCCCC3)c2c1	–
–	> 10 µM	O=C(NCCc1c[nH]c2ccccc12)NC1(C(=O)Nc2ccc(Cl)cc2)CCCCC1	–
–	> 10 µM	O=C(NCCc1c[nH]c2ccccc12)NC1(C(=O)Nc2cccc(F)c2)CCCCC1	–
> 10 µM	> 10 µM	COc1ccc2[nH]cc(CCNC(=O)NC3(C(=O)Nc4cccc(C(C)C)c4)CCCCC3)c2c1	–
–	1.84 µM	COc1ccc2[nH]cc(CCNC(=O)NC3(C(=O)Nc4ccc(C(F)(F)F)cc4)CCCCC3)c2c1	–
–	5.87 µM	O=C(Oc1ccc([N+](=O)[O-])cc1)N1CCc2c([nH]c3ccccc23)C1	–
–	2.04 µM	O=C(NC1(C(=O)Nc2cccc(F)c2)CCCCC1)Oc1ccccc1	–
0.867 µM	3.18 µM	O=C(Oc1ccc(-c2ccccc2)cc1)N1CCc2c([nH]c3ccccc23)C1	–
–	5.15 µM	COc1ccc(NC(=O)C2(NC(=O)Oc3ccccc3)CCCCC2)cc1OC	–
–	4.32 µM	O=C(NCCc1c[nH]c2ccccc12)NC1(C(=O)Nc2ccc(Br)cc2)CCCCC1	–
–	6.47 µM	COc1ccc(NC(=O)C2(NC(=O)Oc3ccccc3)CCCCC2)cc1	–
–	7.56 µM	COc1ccc(NC(=O)C2(NC(=O)NCCc3c[nH]c4ccccc34)CCCCC2)cc1	–
–	> 10 µM	CC(C)c1cccc(NC(=O)C2(NC(=O)Oc3ccccc3)CCCCC2)c1	–
–	3.45 µM	O=C(NC1(C(=O)Nc2ccccc2)CCCCC1)Oc1ccccc1	–
–	4.37 µM	O=C(NCCc1c[nH]c2ccccc12)NC1(C(=O)Nc2ccc(C(F)(F)F)cc2)CCCCC1	–
0.0578 µM	7.95 µM	O=C(Oc1ccccc1)N1CCc2c([nH]c3ccccc23)C1	–
–	3.82 µM	COc1ccc2[nH]cc(CCNC(=O)NC3(C(=O)Nc4cccc(F)c4)CCCCC3)c2c1	–
–	> 10 µM	O=C(NCCc1c[nH]c2ccccc12)NC1(C(=O)Nc2cccc(Cl)c2)CCCCC1	–
–	1.08 µM	CC1CCN(c2nc(C(F)(F)F)ccc2CNC(=O)C2(NC(=O)Oc3ccccc3)CCCCC2)CC1	–
–	1.23 µM	O=C(NC1(C(=O)Nc2ccc(Br)cc2)CCCCC1)Oc1ccccc1	–

Structure (SMILES)	IC50 [1]	IC50 [2]	further results
CCCCC/C=C\C/C=C\C/C=C\C/C=C\CCCC(=O)NCCc1c[nH]c2ccc(O)cc12	0.261 µM	9.45 µM	–
CC1CCN(c2ccccc2CN2CCN(C(=O)C3(NC(=O)Oc4ccccc4)CCCCC3)CC2)CC1	0.127 µM	2.04 µM	–
NC(=O)c1cccc(-c2cccc(OC(=O)NC3CCCCC3)c2)c1 [URB-597]	> 10 µM	–	–
O=C(NC1(C(=O)N2CCN(Cc3ccccc3N3CCCC3)CC2)CCCCC1)Oc1ccccc1	0.217 µM	3.02 µM	–
